Measured values: US7696194B2, “Visual function disorder improving agents” (Senju Pharmaceutical Co., Ltd., priority 2001, dated 2010)
Where a name gives a salt, the structure may show the parent alone.

Columns and labels:
[1] = system: retinal ganglion cell; assay: In vitro extension of nerve axon of cultured retinal ganglion cells (Example 1); type: cell-based, Wistar rat; conditions: then 10 μM compound added, further 24 hrs
Procedure: Retinal ganglion cells were isolated from an eye ball of a Wistar rat, and cultured in a 48 well plate coated with polylysin (50 μg/mL, Sigma) and merosin (2 μg/mL, GIBCO) at 37° C. under the environment of 5% CO2, 95% air. The number of the cells was about 5000 cells/well. The culture solutions were a culture solution (fetal calf serum-free culture solution) of Neurobasal Medium (GIBCO) supplemented with 50 ng/mL BDNF (human brain-derived neurotrophic factor, Sigma), 50 ng/mL CNTF (rat cilliary neurotrophic factor, Sigma), 5 μM forskolin (Sigma), 1 mM glutamine (Wako) and B27 Supplement (GIBCO; 1 mL/50 mL culture solution), and a culture solution (FCS supplemented culture solution) of the aforementioned fetal calf serum-free culture solution supplemented with 10% fetal calf serum (hereinafter to be also referred to as FCS). After culture for 24 hrs in each culture solution, the group cultured in the FCS supplemented culture solution was divided into 2 groups, and one of them was used as a compound 1 addition group with the addition of 10 μM of compound 1, and the other was used as a compound 1 non-addition group. Similarly, the group cultured in the FCS-free culture solution was divided into a compound 1 addition group and a compound 1 non-addition group. […]

[2] = system: optic nerve cell; assay: In vivo optic nerve cell regeneration after optic nerve cut and sciatic nerve autograft (Example 2); set-up: species or system SD rats; conditions: 120 μmol/L, 5 μL into the vitreous body plus gelatin pieces with 10 μmol/L around the autograft, 6 weeks after grafting
Procedure: The optic nerve of SD rats weighing 220-280 g was cut under pentobarbital sodium (0.4 mg/kg, i.p.) anesthesia. Separately, the sciatic nerve of the optic nerve-severed rat was taken out in about 3-4 cm and autografted at an end of the optic nerve, which had been cut earlier. The compound 1 dissolved to 120 μmol/L was injected into the vitreous body by 5 μL immediately before cutting the optic nerve, and gelatin pieces (3 mm×3 mm; Spongel, Yamanouchi Pharm.) immersed in a 10 μmol/L solution of compound 1 were embedded around the autograft (compound 1 treatment group). For the non-treatment group, physiological saline was used instead of compound 1 for both the injection into the vitreous body and preparation of the gelatin pieces. […] The images of the retinal extension samples observed under a microscope were directly imported into computer images from the fluorescence microscope and the retrogradedly labeled retinal ganglion cells were counted using an image analyzing soft (MacSCOP, MITANI CO.). […]
The ratios (%) of the regenerated cell counts of the non-treatment group and compound 1 treatment group, relative to the optic nerve cell counts of the control, were calculated.

[3] = system: retinal ganglion cell; assay: In vitro extension of nerve axon of cultured retinal ganglion cells (Example 3); type: cell-based, Wistar rat
Procedure: Retinal ganglion cells were isolated from an eye ball of a Wistar rat and cultured in a 48 well plate coated with polylysine (50 μg/mL, Sigma) and merosin (2 μg/mL, GIBGO) at 37° C. under the environment of 5% CO2, 95% air. The number of cells was about 5000 cells/well. The culture solution was a culture solution (FCS-free culture solution) of Neurobasal Medium (GIBCO) supplemented with 50 ng/mL BDNF (human brain-derived neurotrophic factor, Sigma), 50 ng/mL CNTF (rat cilliary neurotrophic factor, Sigma), 5 μM forskolin (Sigma), 1 mM glutamine (Wako) and B27 Supplement (GIBCO; 1 mL/50 mL culture solution). After culture for 24 hrs in a culture solution of the aforementioned FCS-free culture solution supplemented with 10% FCS (FCS-supplemented culture solution containing Rho activator) and an FCS-free culture solution, the group cultured in the FCS-free culture solution was divided into 2 groups, and one of them was used as a compound 2 addition group with the addition of 10 μM of compound 2, and the other was used as a compound 2 non-addition group. After further culture for 24 hrs, the level of extension of nerve axon of a retinal ganglion cell was observed under an inverted light microscope. In addition, 1 μM lysophosphatidic acid (LPA), which is a Rho activator, was added to an FCS-free group and axon retraction due to Rho activation was also examined.

[4] = system: optic nerve cell; assay: In vivo optic nerve cell regeneration after optic nerve cut and sciatic nerve autograft (Example 4); set-up: species or system SD rats; conditions: for regenerated optic nerve cell count relative to the control group: control = physiological saline; for regenerated optic nerve cell count relative to the normal group: 5 μL into the vitreous body, 6 weeks after grafting
Procedure: The optic nerve of SD rats weighing 220-280 g was cut under pentobarbital sodium (0.4 mg/kg, i.p.) anesthesia. Separately, the sciatic nerve of the optic nerve-severed rat was taken out in about 3-4 cm and autografted at an end of the optic nerve, which had been cut-earlier. The compound 2 dissolved to 120 μM was injected into the vitreous body by 5 μL immediately before cutting the optic nerve, and gelatin pieces (3 mm×3 mm; Spongel, Yamanouchi Pharm.) immersed in a 10 μM solution of compound 2 were embedded around the autograft (compound 2 treatment group—1). For compound 2 treatment group—2, the compound 2 dissolved to 1.2 mM was injected into the vitreous body by 5 μL and 100 μM of compound 2 was used around the graft. In the control group, physiological saline was used instead of compound 2. During the grafting, attention was paid to avoid damage to the ophthalmic artery, and after grafting, the retinal vascular network was confirmed with a funduscope before breeding under a temperature 23° C.±2, humidity-55±10% environment. The rats were allowed to have a free access to a feed and water. After 6 weeks from the grafting operation, the graft was transversely cut under pentobarbital sodium (0.4 mg/kg, i.p.) anesthesia, and 4-Di-10ASP [4-(4-didecylaminostyryl)-N-methyl-propidium iodide, Sigma, St. Louis, Mo.] crystal (ca. 2 mg) was embedded in the cut area of the graft, thereby to retrogradely label retinal ganglion cells. […]. The images of the retinal extension samples observed under a microscope were directly imported into computer images from the fluorescence microscope and the retrogradely labeled retinal ganglion cells were counted using an image analyzing soft (MacSCOP, MITANI CO.) (FIG. 4). The obtained number of the retrogradely labeled retinal ganglion cells was taken as indicating the regenerated optic nerve cells. Meanwhile, the optic nerve of the rat free of grafting was cut, 4-Di-10ASP crystal (ca. 2 mg) was embedded similarly, and the number of the labeled retinal ganglion cells of the retinal extension sample was taken as the number of optic nerve cells of the normal group.
The ratios (%) of the regenerated optic nerve cell counts of the control group, compound 2 treatment group—1 and compound 2 treatment group—2, relative to the optical nerve cell counts of the control, were calculated.

[5] = system: retinal ganglion cell; assay: In vitro axon length of cultured retinal ganglion cells, Calcein AM image analysis (Example 5); type: cell-based, Wistar rats; conditions: 10 μM final concentration, N=3; for proportion of long neurites cells (axon not less than 100 μm) relative to the whole cells: control group 7%; for proportion of middle neurites cells (axon 21 μm-99 μm) relative to the whole cells: control group 12%
Procedure: In the same manner as in Examples 1 and 3, retinal ganglion cells isolated from the eye ball of 6 to 8-day-old Wistar rats (male-female mixture, SLC) were cultured (cell count: ca. 2000 cells/well). The test compounds (compounds 3-5) were added to the culture solution to the final concentration of 10 μM and respectively used as compound 3 addition group, compound 4 addition group and compound 5 addition group. The control was a test compound non-addition group. The compound 3 (4-[2-(2,3,4,5,6-pentafluorophenyl)acryloyl]cinnamic acid) was synthesized according to the description of Example 8 of JP-A-2000-44513 and used. As compound 4 (ethacrynic acid), one made by Sigma was used and as compound 5 (fasudil hydrochloride), a commercially-available fasudil hydrochloride hydrate injection: “Eril® Injection 30 mg” (produced and sold by Asahi Kasei Corporation) was used.
Using LIVE/DEAD® Viability/Cytotoxicity Kit (L-3224)(Molecular probes) and utilizing the fluorescence characteristics of viable cells by Calcein AM, Calcein AM was uptaken into the retinal ganglion cells and the level of extension of nerve axon of a retinal ganglion cell was observed under a fluorescence microscope. The images of the retinal extension samples observed under a microscope were directly imported into computer images from the fluorescence microscope and the length of the nerve axon was measured using an image analyzing soft (MacSCOP, MITANI CO.). The cells having an axon of not less than 100 μm in length were taken as long neurites cells, the cells having an axon of 21 μm-99 μm were taken as middle neurites cells, and the cells having an axon of not more than 20 μm in length were taken as short neurites cells (no axonal extension). The proportion (%) of the long neurites cells and middle neurites cells relative to the whole cells was calculated for each.

C[C@@H](N)c1ccc(C(=O)Nc2ccnc3[nH]ccc23)cc1.C[C@@H](N)c1ccc(C(=O)Nc2ccnc3[nH]ccc23)cc1.Cl.Cl.Cl.Cl.O.O.O [compound 1, (R)-(+)-N-(1H-pyrrolo[2,3-b]pyridin-4-yl)-4-(1-aminoethyl)benzamide dihydrochloride 3/2 hydrate]
level of extension of nerve axon of a retinal ganglion cell ([1]; FCS-free culture solution 24 hrs): the extension of nerve axon became remarkable | level of extension of nerve axon of a retinal ganglion cell ([1]; FCS-supplemented culture solution 24 hrs, versus non-addition group): clearly showed a retinal ganglion cell nerve axon extending action | regenerated optic nerve cell count relative to the non-treatment group [2]: about 2.4 times | regenerated optic nerve cell count relative to the control group ([2]; control = rat free of grafting): about 12%

C[C@@H](N)c1ccc(C(=O)Nc2ccnc3[nH]ccc23)cc1.Cl [compound 2, (R)-(+)-N-(1H-pyrrolo[2,3-b]pyridin-4-yl)-4-(1-aminoethyl)benzamide monohydrochloride]
level of extension of nerve axon of a retinal ganglion cell ([3]; FCS-free culture solution 24 hrs, then 10 μM compound added, further 24 hrs): clearly showed an action of extending the nerve axon of the retinal ganglion cell | regenerated optic nerve cell count relative to the control group ([4]; treatment group-1: 120 μM intravitreal, 10 μM around the autograft): about 2.3 times | regenerated optic nerve cell count relative to the normal group ([4]; treatment group-1: 120 μM, 10 μM gelatin pieces around the autograft): about 16% | regenerated optic nerve cell count relative to the control group ([4]; treatment group-2: 1.2 mM intravitreal, 100 μM around the graft): about 4 times | regenerated optic nerve cell count relative to the normal group ([4]; treatment group-2: 1.2 mM, 100 μM around the graft): about 28%

C=C(C(=O)c1ccc(C=CC(=O)O)cc1)c1c(F)c(F)c(F)c(F)c1F [compound 3, 4-[2-(2,3,4,5,6-pentafluorophenyl)acryloyl]cinnamic acid]
proportion of long neurites cells (axon not less than 100 μm) relative to the whole cells [5]: 22% | proportion of middle neurites cells (axon 21 μm-99 μm) relative to the whole cells [5]: 23%

C=C(CC)C(=O)c1ccc(OCC(=O)O)c(Cl)c1Cl [compound 4, ethacrynic acid]
proportion of long neurites cells (axon not less than 100 μm) relative to the whole cells [5]: 11% | proportion of middle neurites cells (axon 21 μm-99 μm) relative to the whole cells [5]: 45%

O=S(=O)(c1cccc2cnccc12)N1CCCNCC1 [compound 5, fasudil hydrochloride]
proportion of long neurites cells (axon not less than 100 μm) relative to the whole cells [5]: 15% | proportion of middle neurites cells (axon 21 μm-99 μm) relative to the whole cells [5]: 53%

lysophosphatidic acid [LPA, reference compound]
axon retraction due to Rho activation ([3]; FCS-free culture solution 44 hrs, then 1 μM LPA, further 4 hrs): axon retraction effect
